Like-named read-outs stand apart in the source and are kept apart here. Non-standard residues stand in square brackets, D forms with d. Residues, ends and D or L forms follow the SMILES beside them. No end group written: not given here. Tle = CC(C)(C)[C@H](N)C(=O)O; Dab = NCC[C@H](N)C(=O)O; Aib = CC(C)(N)C(=O)O
Experiments:
[1] = test system: rat red blood cell suspensions; test: hemolysis risk test in rat whole blood; type: cell-based; conditions: for Hemolysis rate (%): Rat, 37 °C 1 h; for hemolysis rates: rat whole blood, concentration range of 1 to 50 µM
Description: Hemolysis refers to the phenomenon in which the membrane of erythrocytes is destroyed, along with increased transparency and a dark red appearance. Certain pharmaceutical ingredients, excipients, etc. may contain hemolytic components, which may cause hemolysis in the human body and cause adverse reactions such as local swelling and blood circulation dysfunction. On the basis of the principle that the hemoglobin released from lysed red blood cells has absorption in the visible light wave band, test compound solutions were added to rat red blood cell suspensions, and after incubation, the degrees of hemolysis were determined using a microplate reader.
(§1) This test example assessed whether a polypeptide compound causes hemolytic reactions in rat, rabbit, and human whole blood.
(§2) Preparation of red blood cell suspension: 100 µL of fresh whole blood was collected, and 900 µL of 1× PBS solution was then added. The mixture was shaken on a plate shaker at 30 rpm for 5 min and then centrifuged at 1000 g for 5 min, and the supernatant was discarded. The above washing step was repeated until the supernatant no longer appeared red. The suspension was set aside for later use.
(§3) Preparation of test polypeptide solutions: An appropriate amount of 1× PBS solution was added to a powdered polypeptide, and the polypeptide was dissolved to form a standard stock solution. […] Meanwhile, blank 1× PBS was used as a negative control, and a 1× PBS solution containing 0.1% Triton X-100 was used as a positive control.
(§4) Incubation: A test solution (500 µL) was added to the red blood cell suspension, and then the mixture was well shaken on a plate shaker at 30 rpm for 5 min, incubated at 37 °C for 1 h, and centrifuged at 1000 g for 5 min.
(§5) 100 µL of the supernatant was transferred to a single well of a microplate. The absorbance at 540 nm was measured using a SpectraMax M5 microplate reader, and data analysis was performed using GraphPad Prism 9. The hemolysis rate (%) was calculated using the formula: (test sample absorbance - negative control absorbance) / (positive control absorbance - negative control absorbance) × 100%. A rate of less than 5% indicates the absence of hemolysis, while a rate of greater than 5% indicates the presence of hemolysis. Table 3. Testing of the hemolysis risk of the polypeptide compound

human whole blood = test: hemolysis risk test in human whole blood; type: cell-based; conditions: for Hemolysis rate (%): Human, 37 °C 1 h; for hemolysis rates: human whole blood, concentration range of 1 to 50 µM
Description: as §1, §2, §3, §4, §5

[2] = pharmacokinetic study of different doses in rats; type: in vivo, SD rats; conditions: intravenous bolus injection; for AUC(0-t): blood to 180 min
Description: For example, at high doses, the agent causes symptoms such as tachycardia and blood pressure reduction due to excessive histamine release. Therefore, the pharmacokinetic profile of polypeptide compound 14 was assessed again using three doses: a high dose (3 nmol/g), a medium dose (1 nmol/g), and a low dose (0.3 nmol/g). […] Plasma concentration-time curves were plotted, and the pharmacokinetic parameters were calculated using WinNonlin software. Table 6. Intravenous bolus injection pharmacokinetic parameters in rats (different doses, n = 3)

histamine release = test: ability to induce histamine release in rats (plasma); type: in vivo, SD rats; parameters: Histamine levels (sums of detected histamine and 3-methylhistamine): unit not given here; conditions: for Histamine levels (sums of detected histamine and 3-methylhistamine): rat plasma
Description: With male SD rats as test animals, the ability of a polypeptide compound administered via single intravenous bolus injection to induce histamine release in rats (plasma) was studied.
This test was performed synchronously with Test Examples 3.6, with three animals per group and blood collection time points set as follows: before administration, and 2 min, 8 min, and 15 min after the end of intravenous bolus injection.
The histamine and 3-methylhistamine levels at each time point were determined by LC-MS/MS. LC-MS detection of compounds: (1) Chromatographic conditions: mobile phase A: acetonitrile/water/100 mM ammonium acetate, 50/45/5 (v/v/v), 2% FA; mobile phase B: acetonitrile/100 mM ammonium acetate, 95/5 (v/v), 2% FA; flow rate: 0.4 mL/min; chromatography column: Waters BEH HILIC 1.7 µm, 2.1 × 150 mm; column temperature: 50 °C; injection volume: 20 µL. (2) Mass-spectrometric conditions: The mass spectrometry analysis used an electrospray ionization (ESI) source, a positive ion analysis mode, and a multi-reaction monitoring (MRM) scan mode.
Sample pretreatment: A 30 µL plasma sample was taken and added to 200 µL of an acetonitrile solution containing tetradeuterated histamine (D4-histamine, 100 ng/mL). The mixture was vortexed for 1 min and then centrifuged at 5800 rpm for 10 min, and 100 µL of the supernatant was transferred to a sample tray and injected into an instrument for analysis. […] Table 7. Histamine levels at different time points

[3] = SD, rat, plasma, 0.3 nmol/g, n = 3
[4] = SD, rat, plasma, 1 nmol/g, n = 3
[5] = SD, rat, plasma, 3 nmol/g, n = 3
[6] = 3 nmol/g, 0 min (before administration)
[7] = 3 nmol/g, 2 min after the end of intravenous bolus injection
[8] = 3 nmol/g, 8 min after the end of intravenous bolus injection
[9] = 3 nmol/g, 15 min after the end of intravenous bolus injection

CC(C)[C@H](NC(=O)[C@H](CC(=O)O)NC(=O)[C@@H](NC(=O)[C@@H](NC(=O)[C@@H](NC(=O)[C@@H](NC(=O)[C@H](CCN)NC(=O)C(C)(C)NC(=O)CNC(=O)[C@@H](CCCNC(=N)N)NC(=O)[C@@H](CCCNC(=N)N)NC(=O)[C@@H](CCCNC(=N)N)NC(=O)[C@@H](CCC(N)=O)NC(=O)[C@@H](CCCNC(=N)N)NC(=O)[C@@H](CCCNC(=N)N)NC(=O)[C@@H](CCCCN)NC(=O)[C@@H](CCCCN)NC(=O)[C@@H](CCCNC(=N)N)NC(=O)CNC(=O)[C@H](N)Cc1ccc(O)cc1)[C@@H](C)O)C(C)(C)C)C(C)(C)C)[C@@H](C)O)C(=O)O [Polypeptide compound 14, y-G-r-k-k-r-r-q-r-r-r-G-Aib-Dab-T-Tle-Tle-T-D-V] (H-[dY]G[dR][dK][dK][dR][dR][dQ][dR][dR][dR]G[Aib][Dab]T[Tle][Tle]TDV-OH)
Hemolysis rate (%) ([1]; 1.0 µM): 0.11%
Hemolysis rate (%) ([1]; 2.5 µM): 0.17%
Hemolysis rate (%) ([1]; 5.0 µM): -0.11%
Hemolysis rate (%) ([1]; 10 µM): 0.00%
Hemolysis rate (%) ([1]; 25 µM): -0.16%
Hemolysis rate (%) ([1]; 50 µM): 0.12%
hemolysis rates [1]: less than 5%
Hemolysis rate (%) (human whole blood; 1.0 µM): 0.09%
Hemolysis rate (%) (human whole blood; 2.5 µM): 0.38%
Hemolysis rate (%) (human whole blood; 5.0 µM): 0.15%
Hemolysis rate (%) (human whole blood; 10 µM): 0.31%
Hemolysis rate (%) (human whole blood; 25 µM): 0.08%
Hemolysis rate (%) (human whole blood; 50 µM): 0.53%
hemolysis rates (human whole blood): less than 5%
AUC(0-t) ([2]; SD, rat, plasma, 0.3 nmol/g, n = 3, read-out: AUC(0-t)): 1230 ng·h/mL
AUC(0-inf) [2, 3]: 1280 ng·h/mL
MRT [2, 3]: 51.4 min
half-life [2, 3]: 43.4 min
Cmax ([2]; SD, rat, plasma, 0.3 nmol/g, n = 3, read-out: Cmax): 1870 ng/mL
AUC(0-t) ([2]; SD, rat, plasma, 1 nmol/g, n = 3, read-out: AUC(0-t)): 5860 ng·h/mL
AUC(0-inf) [2, 4]: 6600 ng·h/mL
MRT [2, 4]: 78.4 min
half-life [2, 4]: 58 min
Cmax ([2]; SD, rat, plasma, 1 nmol/g, n = 3, read-out: Cmax): 5970 ng/mL
AUC(0-t) ([2]; SD, rat, plasma, 3 nmol/g, n = 3, read-out: AUC(0-t)): 15000 ng·h/mL
AUC(0-inf) [2, 5]: 17700 ng·h/mL
MRT [2, 5]: 88.4 min
half-life [2, 5]: 69.2 min
Cmax ([2]; SD, rat, plasma, 3 nmol/g, n = 3, read-out: Cmax): 18300 ng/mL
Histamine levels (sums of detected histamine and 3-methylhistamine) (histamine release; 0.3 nmol/g, 0 min (before administration)): 34.1±21.7
Histamine levels (sums of detected histamine and 3-methylhistamine) (histamine release; 0.3 nmol/g, 2 min after the end of intravenous bolus injection): 18.2±5.2
Histamine levels (sums of detected histamine and 3-methylhistamine) (histamine release; 0.3 nmol/g, 8 min after the end of intravenous bolus injection): 38.7±16.8
Histamine levels (sums of detected histamine and 3-methylhistamine) (histamine release; 0.3 nmol/g, 15 min after the end of intravenous bolus injection): 45.3±3.3
Histamine levels (sums of detected histamine and 3-methylhistamine) (histamine release; 1 nmol/g, 0 min (before administration)): 45.5±14.4
Histamine levels (sums of detected histamine and 3-methylhistamine) (histamine release; 1 nmol/g, 2 min after the end of intravenous bolus injection): 41.9±23.3
Histamine levels (sums of detected histamine and 3-methylhistamine) (histamine release; 1 nmol/g, 8 min after the end of intravenous bolus injection): 59.4±53.5
Histamine levels (sums of detected histamine and 3-methylhistamine) (histamine release; 1 nmol/g, 15 min after the end of intravenous bolus injection): 71.4±38.7
Histamine levels (sums of detected histamine and 3-methylhistamine) (histamine release; [6]): 50.2±28.7
Histamine levels (sums of detected histamine and 3-methylhistamine) (histamine release; [7]): 754.7±448.6
Histamine levels (sums of detected histamine and 3-methylhistamine) (histamine release; [8]): 558.0±405.6
Histamine levels (sums of detected histamine and 3-methylhistamine) (histamine release; [9]): 265.3±145.7
increase in histamine levels (histamine release; rats, medium (1 nmol/g) or low (0.3 nmol/g) dose, within 15 min): no significant increase in histamine levels
peak histamine release relative to NA-1 (histamine release; rats, same high dose (3 nmol/g), 2 min): nearly twice that of NA-1

YGRKKRRQRRRKLSSIESDV [NA-1, YGRKKRRQR RRKLSSIESDV, reference compound]
Hemolysis rate (%) ([1]; 1.0 µM): -0.12%
Hemolysis rate (%) ([1]; 2.5 µM): 0.03%
Hemolysis rate (%) ([1]; 5.0 µM): 0.50%
Hemolysis rate (%) ([1]; 10 µM): 0.48%
Hemolysis rate (%) ([1]; 25 µM): 0.34%
Hemolysis rate (%) ([1]; 50 µM): -0.46%
hemolysis rates [1]: less than 5%
Hemolysis rate (%) (human whole blood; 1.0 µM): -0.52%
Hemolysis rate (%) (human whole blood; 2.5 µM): -0.59%
Hemolysis rate (%) (human whole blood; 5.0 µM): -0.49%
Hemolysis rate (%) (human whole blood; 10 µM): -0.54%
Hemolysis rate (%) (human whole blood; 25 µM): -0.53%
Hemolysis rate (%) (human whole blood; 50 µM): 0.06%
hemolysis rates (human whole blood): less than 5%
half-life ([2]; SD, rat, in vivo, 3 nmol/g, n = 3): 2.1 min
AUC(0-t) ([2]; 3 nmol/g, n = 3): 1149 ng·h/mL
AUC(inf) ([2]; 3 nmol/g, n = 3): 1154 ng·h/mL
Cmax ([2]; 3 nmol/g, n = 3): 7188 ng/mL
MRTO-inf ([2]; 3 nmol/g, n = 3): 7.5 min
Histamine levels (sums of detected histamine and 3-methylhistamine) (histamine release; [6]): 21.0±5.9
Histamine levels (sums of detected histamine and 3-methylhistamine) (histamine release; [7]): 390.7±164.2
Histamine levels (sums of detected histamine and 3-methylhistamine) (histamine release; [8]): 86.6±36.6
Histamine levels (sums of detected histamine and 3-methylhistamine) (histamine release; [9]): 48.3±19.2

Reference: patent publication EP4650362A1, “NEUROPROTECTIVE PSD-95 POLYPEPTIDE INHIBITOR AND USE THEREOF” (Beijing Tuo Jie Biopharmaceutical Co. Ltd., priority 2023, dated 2024)
